Experimental data as given in patent US20090143279A1 (priority 2007, published 2009).
Read-outs that look alike come from different tables or passages of the source.

What was measured:
mtOXPHOS transcripts = format: cell-based, mouse; conditions: for mitoOX (composite Z-score): normalized score vs mock-treated (DMSO) wells
reactive oxygen species = format: cell-based, mouse; conditions: for ROS (composite Z-score): normalized score vs mock-treated (DMSO) wells
nuOXPHOS transcripts = format: cell-based, mouse; conditions: for nucOX (composite Z-score): normalized score vs mock-treated (DMSO) wells
[1] = system: mitochondrial membrane potential; format: cell-based, mouse; conditions: for ΔΨm (composite Z-score): normalized score vs mock-treated (DMSO) wells
OXPHOS gene expression = format: cell-based, mouse; conditions: for GE-HTS (composite Z-score): normalized score vs mock-treated (DMSO) wells
cytochrome c = format: cell-based, mouse; conditions: for cyt c (composite Z-score): normalized score vs mock-treated (DMSO) wells
C2C12 myotubes = conditions: for Viability (composite Z-score): normalized score vs mock-treated (DMSO) wells
[2] = system: cellular dehydrogenase activity; conditions: for MTT (composite Z-score): normalized score vs mock-treated (DMSO) wells
[3] = composite Z-score vs mock-treated (DMSO) wells, Conc 20 μM
[4] = normalized composite Z-score vs mock-treated (DMSO) wells, Conc 20 μM
[5] = Table 4, C2C12 myotubes, 48 h, composite Z-score
[6] = composite Z-score vs DMSO, Conc 20 μM
[7] = 20 μM, composite Z-score vs DMSO
[8] = composite Z-score vs DMSO, Conc 9.58 μM

cytochrome c, sequence (P62897 whole entry): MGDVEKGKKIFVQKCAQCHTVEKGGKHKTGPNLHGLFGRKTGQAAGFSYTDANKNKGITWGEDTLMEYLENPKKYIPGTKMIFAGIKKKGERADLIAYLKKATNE

## CC(=O)O[C@H]1C[C@@H](OC(C)=O)C(C)(C)C2CC(=O)[C@]3(C)C(CC[C@@]4(C)[C@H](c5ccoc5)OC(=O)[C@H]5O[C@]543)[C@]21C (some centres unmarked) [7-deacetoxy-7-oxokhivorin]
mtOXPHOS transcripts; [3]
  mitoOX: 0.738
Reactive oxygen species; [3]
  ROS: 0.070
nuOXPHOS transcripts; [3]
  nucOX: 0.690
[1]; [3]
  ΔΨm: 0.258
OXPHOS gene expression; [3]
  GE-HTS: 0.777
Cytochrome c; [3]
  cyt c: −0.184
C2C12 myotubes; [3]
  Viability: 0.053
[2]; [3]
  MTT: −0.095

## CCC(C)C(=O)O[C@@H]1C[C@@]2(C)[C@H](c3ccoc3)OC(=O)CC23OC2(C)OC34[C@H](OC(=O)C(C)C)[C@@]3(O)[C@@H](OC(=O)C5(C)OC5C)[C@@]5(C)C[C@]3(O)[C@@](C)([C@H]5CC(=O)OC)C14O2 (some centres unmarked) [entandrophragmin]
mtOXPHOS transcripts; [3]
  mitoOX: 1.061
Reactive oxygen species; [3]
  ROS: 1.351
nuOXPHOS transcripts; [3]
  nucOX: 0.149
[1]; [3]
  ΔΨm: 0.113
OXPHOS gene expression; [3]
  GE-HTS: 0.467
Cytochrome c; [3]
  cyt c: −0.703
C2C12 myotubes; [3]
  Viability: 0.672
[2]; [3]
  MTT: −0.737

## COc1cc2c(cc1OC)C1C(=O)c3c(cc4c(c3O)C=CC(C)(C)O4)OC1CO2 (stereo not drawn) [beta-toxicarol, reference compound]
mtOXPHOS transcripts; [4]
  mitoOX: −0.627
Reactive oxygen species; [5]
  ROS: −0.188
Reactive oxygen species; [4]
  ROS: −0.188
nuOXPHOS transcripts; [4]
  nucOX: −1.773
[1]; Table 4, C2C12 myotubes, 48 h, JC-1, composite Z-score
  ΔΨm: 0.899
[1]; [4]
  ΔΨm: 0.899
OXPHOS gene expression; [4]
  GE-HTS: −1.508
Cytochrome c; [4]
  cyt c: −0.239
C2C12 myotubes; [5]
  Viability: 0.672
C2C12 myotubes; [4]
  Viability: 0.672
[2]; [5]
  MTT: −1.498
[2]; [4]
  MTT: −1.498

## COc1ccc2c(c1)O[C@H]1c3ccc(OC)cc3OC[C@@H]21 [homopterocarpin]
mtOXPHOS transcripts; [4]
  mitoOX: −1.126
Reactive oxygen species; [4]
  ROS: −0.616
nuOXPHOS transcripts; [4]
  nucOX: −0.713
[1]; [4]
  ΔΨm: −0.306
OXPHOS gene expression; [4]
  GE-HTS: −0.918
Cytochrome c; [4]
  cyt c: 0.575
C2C12 myotubes; [4]
  Viability: 0.549
[2]; [4]
  MTT: −0.578

## CC1(C)C=Cc2cc3ccc(=O)oc3cc2O1 [xanthyletin]
mtOXPHOS transcripts; [3]
  mitoOX: 1.085
Reactive oxygen species; [3]
  ROS: 0.217
nuOXPHOS transcripts; [3]
  nucOX: 0.924
[1]; [3]
  ΔΨm: −0.220
OXPHOS gene expression; [3]
  GE-HTS: 1.029
Cytochrome c; [3]
  cyt c: −0.029
C2C12 myotubes; [3]
  Viability: −0.674
[2]; [3]
  MTT: −1.741

## COc1cc([C@@H]2c3cc4c(cc3[C@@H](O[C@@H]3O[C@@H]5CO[C@@H](C)O[C@H]5[C@H](O)[C@H]3O)[C@H]3COC(=O)[C@H]23)OCO4)cc(OC)c1O [etoposide]
mtOXPHOS transcripts; [6]
  mitoOX: 1.373
Reactive oxygen species; [6]
  ROS: −1.736
nuOXPHOS transcripts; [6]
  nucOX: 0.355
[1]; [6]
  ΔΨm: 0.050
OXPHOS gene expression; [6]
  GE-HTS: 0.725
Cytochrome c; [6]
  cyt c: −0.491
C2C12 myotubes; [6]
  Viability: −1.541
[2]; [6]
  MTT: −2.352

## CN1Cc2c(N)cccc2C(c2ccccc2)C1 (centres unmarked) [nomifensin]
mtOXPHOS transcripts
  mitoOX: 0.181
mtOXPHOS transcripts; [7]
  mitoOX: −0.026
Reactive oxygen species
  ROS: 3.133
Reactive oxygen species; [7]
  ROS: 3.112
nuOXPHOS transcripts
  nucOX: −0.571
nuOXPHOS transcripts; [7]
  nucOX: −0.169
[1]
  ΔΨm: −0.329
[1]; [7]
  ΔΨm: −0.059
OXPHOS gene expression
  GE-HTS: −0.331
OXPHOS gene expression; [7]
  GE-HTS: −0.131
Cytochrome c
  cyt c: −1.298
Cytochrome c; [7]
  cyt c: −1.233
C2C12 myotubes
  Viability: 0.121
C2C12 myotubes; [7]
  Viability: 0.525
[2]
  MTT: −0.534
[2]; [7]
  MTT: −0.885

## CC(C)(C#N)O[C@@H]1O[C@H](CO)[C@@H](O)[C@H](O)[C@H]1O [linamarin]
mtOXPHOS transcripts; Conc 20 μM
  mitoOX (composite Z-score): −1.232
Reactive oxygen species; Conc 20 μM
  ROS (composite Z-score): −0.189
nuOXPHOS transcripts; Conc 20 μM
  nucOX (composite Z-score): −0.847
[1]; Conc 20 μM
  ΔΨm (composite Z-score): −0.333
OXPHOS gene expression; Conc 20 μM
  GE-HTS (composite Z-score): −1.024
Cytochrome c; Conc 20 μM
  cyt c (composite Z-score): −0.052
C2C12 myotubes; Conc 20 μM
  Viability (composite Z-score): 0.796
[2]; Conc 20 μM
  MTT (composite Z-score): −1.611

## methyl 7-deshydroxypyrogallin-4-carboxylate
mtOXPHOS transcripts; [4]
  mitoOX: −1.395
Reactive oxygen species; [4]
  ROS: 0.145
nuOXPHOS transcripts; [4]
  nucOX: −1.394
[1]; [4]
  ΔΨm: −1.695
OXPHOS gene expression; [4]
  GE-HTS: −1.502
Cytochrome c; [4]
  cyt c: 0.133
C2C12 myotubes; [4]
  Viability: −0.873
[2]; [4]
  MTT: −1.261

## COCCc1ccc(OCC(O)CNC(C)C)cc1 (centres unmarked) [metoprolol, reference compound]
mtOXPHOS transcripts; [8]
  mitoOX: −0.342
mtOXPHOS transcripts; [6]
  mitoOX: 0.241
Reactive oxygen species; [8]
  ROS: 0.253
Reactive oxygen species; [6]
  ROS: 0.652
nuOXPHOS transcripts; [8]
  nucOX: −0.430
nuOXPHOS transcripts; [6]
  nucOX: 0.546
[1]; [8]
  ΔΨm: −0.997
[1]; [6]
  ΔΨm: −0.515
OXPHOS gene expression; [8]
  GE-HTS: −0.423
OXPHOS gene expression; [6]
  GE-HTS: 0.450
Cytochrome c; [8]
  cyt c: 0.496
Cytochrome c; [6]
  cyt c: 0.596
C2C12 myotubes; [8]
  Viability: 0.437
C2C12 myotubes; [6]
  Viability: 0.326
[2]; [8]
  MTT: −1.894
[2]; [6]
  MTT: −1.660

## CC(=O)Oc1cc2c(c(C)c1OC(C)=O)CC=C1[C@@]2(C)CC[C@@]2(C)C3C[C@](C)(C(=O)O)CC[C@]3(C)CC[C@]12C (some centres unmarked) [dihydrocelastryl diacetate]
mtOXPHOS transcripts; Conc 20 μM
  mitoOX (composite Z-score): −3.815
Reactive oxygen species; Conc 20 μM
  ROS (composite Z-score): −3.182
nuOXPHOS transcripts; Conc 20 μM
  nucOX (composite Z-score): 0.241
[1]; Conc 20 μM
  ΔΨm (composite Z-score): −3.309
OXPHOS gene expression; Conc 20 μM
  GE-HTS (composite Z-score): −1.199
Cytochrome c; Conc 20 μM
  cyt c (composite Z-score): −5.617
C2C12 myotubes; Conc 20 μM
  Viability (composite Z-score): −4.472
[2]; Conc 20 μM
  MTT (composite Z-score): −4.098

## gentamicin sulfate
mtOXPHOS transcripts; [6]
  mitoOX: 0.188
Reactive oxygen species; [6]
  ROS: 0.369
nuOXPHOS transcripts; [6]
  nucOX: −0.267
[1]; [6]
  ΔΨm: −1.213
OXPHOS gene expression; [6]
  GE-HTS: −0.117
Cytochrome c; [6]
  cyt c: −0.896
C2C12 myotubes; [6]
  Viability: −0.804
[2]; [6]
  MTT: −0.150
